Consider 5 compounds from US20040171019A1, “PIN1 peptidyl-prolyl isomerase polypeptides, their crystal structures, and use thereof for drug design” (Agouron Pharmaceuticals, Inc., priority 2002, published 2004).

Numbered stars: 1 amine (or outer) side, 2 acyl side, 3 side chain; on linkers, the order of the positions; unused ones are H or OH. Square brackets hold non-standard residues; d marks the D form. Peptide text beside a SMILES is read from it. * marks the point of attachment. pS = N[C@@H](COP(=O)(O)O)C(=O)O; pNA = O=[N+]([O-])c1ccc(N*)cc1; Suc = O=C(CCC(=O)[*:2])[*:1] Some results are limits rather than exact numbers.

One test deals with T1, mutant PPIase K77Q/K82Q (Homo sapiens, UniProt Q13526, K77Q/K82Q).
T1 construct: 6xHis (N, cleaved yes); made in house; host or cells: E. coli BL21(DE3)
Description: PIN1 peptidyl-prolyl isomerase assay (protease-coupled, Suc-AEPF-pNA). The note with it: 15° C., read-out: Km for this substrate. It counts as biochemical. As for the experimental part:
PIN1 is a phosphorylation dependent peptidyl-prolyl isomerase. […] Cleavage of the isomerized peptide releases para-nitroanaline, which can be monitored by an increase in absorbance at 390 nm. […] To minimize the spontaneous isomerization of the peptide substrate, reactions are performed at 15° C.
The rate constant k is linearly proportional to the concentration of active enzyme present in the assay mixture once the rate constant for the spontaneous isomerization is subtracted.

The next test deals with T2, PPIase domain of PIN1 (Homo sapiens, UniProt Q13526).
T2 construct: made in house; host or cells: E. coli BL21(DE3)
The test can be described thus: Fluorescence polarization competition assay with fluorescein-tagged Pintide. The note with it: free Pintide as inhibitor control. Format: binding. From the text:
This assay is based on fluorescence polarization. In fluorescence polarization detection, monochromatic light passes through a polarized filter and excites molecules in the sample well. Only those molecules that are oriented properly in the polarized plane absorb light, become excited, and subsequently emit light. The emitted light is detected after passing through polarizing filters that are oriented parallel and perpendicular to the plane of excitation. Since small molecules rotate more quickly than large molecules (e.g. in the form of a bound complex), the parallel (S) and perpendicular (P) measurements are closer and the difference is lower. Fluorescence polarization is measured in mP (milliP) which is defined using the following equation: […]
For the PIN1 assay, library compounds compete with fluorescein-tagged Pintide to bind the PPIase domain of PIN1. After a short incubation, samples are assayed using fluorescence polarization. The excitation and emission of fluorescein occur at 485 nm and 530 nm, repectively. […]
Experiments were performed in either 96-well plates or 384-well black flat bottom polystyrene non-binding surface (NBS) plates (Costar). […] Excitation was measured at 485 nm and emission was measured at 530 nm. Readings were taken in a Florescence Polarization reader (Molecular Devices Analyst). […]
(Polarisation of emitted light reports the rotation of a fluorescent probe.)

Another test addresses human PIN1 (Homo sapiens, UniProt Q13526). The note with it: Hennig et al., Biochemistry 37: 5953-5960 (1998); cited from earlier work.
The target of test [1] is T3, His-tagged construct of the K77Q/K82Q PPIase domain (Homo sapiens, UniProt Q13526, K77Q/K82Q).
T3 construct: made in house; host or cells: E. coli BL21(DE3)
The test can be described thus: Isothermal titration calorimetry. It counts as binding. Here is the method:
The working volume of the ITC cell was 1.414 mL. Both solutions contained 25 mM MOPS pH 7.5, 0.5 mM TCEP and 2.0% DMSO (vol./vol.). The PPIase polypeptide solution was prepared by exhaustively dialyzing a stock protein solution against several changes of dialysis buffer (25 mM MOPS pH 7.5, 0.5 mM TCEP) at 4.0° C.
After dialysis the protein was centrifuged to remove any particulate matter. The protein concentration was then determined by absorbance using an extinction coefficient that had been calculated based on the tryptophan and tyrosine content of the protein. The dialysed protein was then diluted with the dialysate and 2.0% (volume to volume) DMSO was added to yield a final concentration of 200 μM protein. […] An aliquot of the stock solution was diluted in DMSO and then an appropriate volume of dialysate was added. The final DMSO concentration was 2.0% (volume to volume) and the final compound concentration was 10 μM.
Appropriate control titrations (buffer into buffer, buffer into compound, and protein into buffer) were performed to determine the heats of dilution. Prior to fitting for the binding parameters, the observed heats of binding were corrected for heat of dilution of the protein. […] The data were fit using the ORIGIN® software package (MicroCal) provided with the ITC (FIG. 6). […] The One Set of Sites model with ligand in the cell was selected.
(In general: Isothermal titration calorimetry measures the heat released or taken up as one component is titrated into another.)

The test system of test [2] is Suc-AEPF-pNA peptide substrate. The test can be described thus: Peptidyl-prolyl isomerase activity of PIN1 polypeptides without inhibitor. Format: biochemical. The note with it: 0.033 nM enzyme, 100 μM Suc-AEPF-pNA. The text has this:
PIN1 is a phosphorylation dependent peptidyl-prolyl isomerase. Peptidyl-prolyl ismomerase activity for the peptides of the invention can be measured using a spectrophotometric assay based on the coupled chymotrypsin catalyzed, cis-trans conformation dependent cleavage of a para-nitroanaline-containing peptide substrate. This rotamase assay is described by Kofron et al. (Biochemistry 30, […] (1991)) and its application to PIN1 isomerase activity is described by Yaffe et al. (Science 278, 1957-1960 (1997)). Cleavage of the isomerized peptide releases para-nitroanaline, which can be monitored by an increase in absorbance at 390 nm. The PIN1 peptide substrate, succinyl-alanine-[…]-proline-phenylalanine-paranitroaniline (Suc-AEPF-pNA) (Bachem California, Inc., Torrence, Calif.) is kept in a predominantly cis conformation with an anhydrous TFE (trifluorethanol)/LiCl (lithium chloride) solvent mixture. […]
Peptidyl-prolyl isomerase reactions were carried out in 25 mM MOPS [3-(N-Morpholino)propanesufonic acid], pH 7.5, 0.5 mM TCEP [Tris(2-carboxyethyl)phosphine hydrochloride], 2% DMSO, 5 μl of a 25 mg/ml solution of Subtilisin Carlsberg Protease (Sigma), […], and 100 μM Suc-AEPF-pNA peptide substrate. […] The absorbance at 390 nm was monitored continuously until all substrate had been converted to the cleaved product. […]

[3] abbreviates: ITC, 15.0° C., duplicate, ± standard deviation.
[4] abbreviates: best fit of corrected binding data, FIG. 6.

For `C[C@H](NC(=O)CCC(=O)O)C(=O)N[C@@H](CCC(=O)O)C(=O)N1CCC[C@H]1C(=O)N[C@@H](Cc1ccccc1)C(=O)Nc1ccc([N+](=O)[O-])cc1` [Suc-AEPF-pNA] (Suc-AEPF-pNA), on mutant PPIase K77Q/K82Q, the Km is greater than 100 µM.
At PPIase domain of PIN1, `CC(C)C[C@H](NC(=O)[C@H](Cc1ccccc1)NC(=O)[C@@H]1CCCN1C(=O)[C@H](COP(=O)(O)O)NC(=O)[C@H](Cc1ccc(O)cc1)NC(=O)[C@H](Cc1ccccc1)NC(=O)[C@@H](N)Cc1c[nH]c2ccccc12)C(=O)N[C@@H](CCC(=O)O)C(=O)O` [Pintide] (H-WFY[pS]PFLE-OH) had an IC50 of 7 to 10 µM.
In the case of `O=C1C=CC(=O)c2c(O)cccc21` [juglone, 5-hydroxy-1,4-naphthoquinone], at human PIN1, the “inhibition of parvulins, including human PIN1” value is “selectively inhibits”.
Regarding `O=C(N[C@@H](COP(=O)(O)O)Cc1ccccc1)c1cc2ccccc2s1` [Compound I, Phosphoric acid mono-{(R)-2-[(1-benzo[b]thiophen-2-yl-methanoyl)-amino]-3-phenyl-propyl} ester], in test [1] (setting [3]), the enthalpy of binding is given as −7.3 (±0.1) kcal/mol and the stoichiometry was 0.854 (±0.003). In test [1] (setting [4]), this compound gave a C value of 142 and a ka of 1.42e+07 M⁻¹.
Compound “wild-type PIN1: wild type human PIN1, a phosphorylation dependent peptidyl-prolyl isomerase” displayed a rate in test [2] of 0.2.

For orientation: Km means the concentration of substrate that gives half-maximal velocity. One may read the IC50 as the point on the concentration scale where inhibition reaches its midpoint. A high value points to lower potency.
